Legend:
Cytochrome P450 1A2 = molecular target: T1, Cytochrome P450 1A2 (Homo sapiens, UniProt P05177); test: Inhibition of Cytochrome P450 1A2 enzyme in bacterial membrane expressing human P450s; format: ADME, cell membranes
T1 sequence (P05177 whole entry): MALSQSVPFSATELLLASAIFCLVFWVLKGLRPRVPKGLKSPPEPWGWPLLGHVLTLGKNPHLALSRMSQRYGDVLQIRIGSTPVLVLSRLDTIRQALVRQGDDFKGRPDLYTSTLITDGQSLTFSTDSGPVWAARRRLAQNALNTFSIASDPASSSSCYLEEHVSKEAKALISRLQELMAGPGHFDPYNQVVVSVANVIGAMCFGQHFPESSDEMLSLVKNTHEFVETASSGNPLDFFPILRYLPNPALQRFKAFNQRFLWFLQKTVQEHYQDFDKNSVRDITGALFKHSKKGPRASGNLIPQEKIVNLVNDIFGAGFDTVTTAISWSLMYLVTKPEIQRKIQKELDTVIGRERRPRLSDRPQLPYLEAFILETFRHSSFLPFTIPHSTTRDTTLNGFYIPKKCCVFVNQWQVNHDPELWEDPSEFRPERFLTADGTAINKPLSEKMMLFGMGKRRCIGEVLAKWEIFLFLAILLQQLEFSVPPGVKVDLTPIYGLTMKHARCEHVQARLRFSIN

[1] = Ratio for inhibition of Cytochrome P450 1A1 to that of Cytochrome P450 1A2; format: ADME
Cytochrome P450 1A1 = molecular target: T2, Cytochrome P450 1A1 (Homo sapiens, UniProt P04798); test: Inhibition of Cytochrome P450 1A1 enzyme in bacterial membrane expressing human P450s; format: ADME, cell membranes
T2 sequence (P04798 whole entry): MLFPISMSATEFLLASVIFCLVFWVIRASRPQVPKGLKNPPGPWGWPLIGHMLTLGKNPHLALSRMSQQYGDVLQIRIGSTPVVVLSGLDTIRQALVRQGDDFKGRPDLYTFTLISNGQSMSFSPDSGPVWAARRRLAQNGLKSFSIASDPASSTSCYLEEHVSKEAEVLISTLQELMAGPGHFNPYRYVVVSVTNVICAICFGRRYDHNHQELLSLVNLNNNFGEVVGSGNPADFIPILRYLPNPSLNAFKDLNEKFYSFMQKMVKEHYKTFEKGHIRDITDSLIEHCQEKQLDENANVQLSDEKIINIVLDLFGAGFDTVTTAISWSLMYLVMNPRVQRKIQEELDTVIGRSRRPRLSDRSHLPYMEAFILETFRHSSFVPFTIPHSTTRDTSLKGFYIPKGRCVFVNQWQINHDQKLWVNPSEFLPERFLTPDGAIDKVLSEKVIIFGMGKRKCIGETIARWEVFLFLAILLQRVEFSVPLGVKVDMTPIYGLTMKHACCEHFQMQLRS

Cytochrome P450 1B1 [2] = molecular target: T3, Cytochrome P450 1B1 (Homo sapiens, UniProt Q16678); test: Inhibition of Cytochrome P450 1B1 enzyme in bacterial membrane expressing human P450s; format: ADME, cell membranes
T3 sequence (Q16678 whole entry): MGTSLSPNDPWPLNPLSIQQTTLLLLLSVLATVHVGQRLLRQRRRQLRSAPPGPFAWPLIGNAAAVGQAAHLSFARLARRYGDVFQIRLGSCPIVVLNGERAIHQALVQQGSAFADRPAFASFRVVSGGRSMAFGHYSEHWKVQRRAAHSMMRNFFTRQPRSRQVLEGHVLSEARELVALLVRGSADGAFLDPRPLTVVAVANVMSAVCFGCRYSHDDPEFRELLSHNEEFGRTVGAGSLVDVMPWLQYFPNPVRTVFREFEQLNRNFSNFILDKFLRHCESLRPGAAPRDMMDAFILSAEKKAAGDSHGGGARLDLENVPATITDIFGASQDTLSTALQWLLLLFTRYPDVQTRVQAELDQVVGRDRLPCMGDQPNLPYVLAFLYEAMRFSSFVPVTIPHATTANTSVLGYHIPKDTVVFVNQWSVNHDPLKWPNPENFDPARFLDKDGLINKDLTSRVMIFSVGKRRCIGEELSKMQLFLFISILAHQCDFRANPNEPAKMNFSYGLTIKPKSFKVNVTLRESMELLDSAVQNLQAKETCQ

[3] = Ratio for inhibition of Cytochrome P450 1B1 to that of Cytochrome P450 1A2; format: ADME
Cytochrome P450 1B1 [4] = molecular target: T3, Cytochrome P450 1B1; test: Inhibition of human Cytochrome P450 1B1 expressed in bacterial membrane; format: ADME, cell membranes

SMILES	IC50 (Cytochrome P450 1A2)	IC50 (Cytochrome P450 1A1)	IC50 (Cytochrome P450 1B1 [2])	IC50 (Cytochrome P450 1B1 [4])	ratio [1]	ratio [3]
COc1ccc2nc3n(c(=O)c2c1OC)CCc1c-3[nH]c2ccccc12	1730 nM	870 nM	140 nM		0.5	0.08
COc1ccc2nc3n(c(=O)c2c1)CCc1c-3[nH]c2ccccc12	280 nM	1280 nM	140 nM		5	0.5
C[n+]1c2n(c(=O)c3ccccc31)CCc1c-2[nH]c2ccccc12 [DEHYDROEVODIAMINE]	5630 nM	18000 nM	330 nM		3	0.06
COc1ccc2c3c([nH]c2c1)-c1nc2ccccc2c(=O)n1CC3	1980 nM	2000 nM	110 nM		1	0.06
O=c1c2cc(Br)ccc2nc2n1CCc1c-2[nH]c2ccccc12	1500 nM	2470 nM	120 nM		16	0.8
CN1c2ccccc2C(=O)N2CCc3c([nH]c4ccccc34)[C@H]21 [EVODIAMINE]	16300 nM	24600 nM	690 nM			
CN1c2ccccc2C(=O)N2CCc3c([nH]c4ccccc34)[C@@H]21 [EVODIAMINE]					2	0.04
COc1cc2nc3n(c(=O)c2cc1OC)CCc1c-3[nH]c2ccccc12	> 500000 nM	1580 nM	160 nM		< 0.003	< 0.0003
COc1ccc2c(=O)n3c(nc2c1)-c1[nH]c2ccccc2c1CC3	76 nM	850 nM	170 nM		11	2
COc1ccc2[nH]c3c(c2c1)CCn1c-3nc2ccccc2c1=O	2920 nM	1780 nM		84 nM	0.6	0.03

Continued by falling IC50 (Cytochrome P450 1A2), values first:

IC50 (Cytochrome P450 1A2)	IC50 (Cytochrome P450 1A1)	IC50 (Cytochrome P450 1B1 [2])	IC50 (Cytochrome P450 1B1 [4])	SMILES	ratio [1]	ratio [3]
41 nM	420 nM	80 nM		COc1cc(OC)c2nc3n(c(=O)c2c1)CCc1c-3[nH]c2ccccc12	11	2
39 nM	1200 nM	37 nM		O=c1c2ccc(Cl)cc2nc2n1CCc1c-2[nH]c2ccccc12	30	1
30 nM				Oc1c2ccccc2nc2c3nc4ccccc4c-3ccn12		
29 nM	1920 nM	90 nM		O=c1c2cc(Cl)ccc2nc2n1CCc1c-2[nH]c2ccccc12	64	3
29 nM	970 nM	2400 nM		COc1ccc2c(=O)n3c(nc2c1OC)-c1[nH]c2ccccc2c1CC3	33	8
22 nM	260 nM	55 nM		O=c1c2ccccc2nc2n1CCc1c-2[nH]c2ccccc12 [RUTAECARPINE]	13	3
11 nM	450 nM	71 nM		COc1cccc2c(=O)n3c(nc12)-c1[nH]c2ccccc2c1CC3	45	7
